Laboratory results from patent publication US11324741B2, “Methods for treating visceral fat conditions” (Orexigen Therapeutics, Inc., priority 2008, dated 2022).

Tests used:
Format in all cases: in vivo, human
Subjects [1] = experiment: DEXA body scan and multi-slice CT scan of body fat and visceral fat at baseline and 6 months (Example 2); set-up: LS Mean (SE)^, Visceral Adipose Mass / Change from Baseline Mean (SD), Visceral Adipose Mass / LS Mean (SE)^, Total Body Adipose Mass / Change from Baseline Mean (SD), Total Body Adipose Mass: unit not given here; settings: for Change from Baseline Mean (SD), Total Body Adipose Mass: DEXA; for Change from Baseline Mean (SD), Total Body Adipose Mass / Change from Baseline Mean (SD), Visceral Adipose Mass: baseline to 6 months; for Change in Waist Circumference (cm): Table 2, titled Baseline Weight, BMI and Weight Circumference; for Change in Waist Circumference (%) vs. placebo: Table 2; for LS Mean (SE)^, Total Body Adipose Mass / LS Mean (SE)^, Visceral Adipose Mass: change from baseline; for Change from Baseline Mean (SD), Visceral Adipose Mass: multi-slice CT
Experimental: (§1) Subjects (n=117) received one of six treatments: two placebos (P+P), placebo and naltrexone (P+Nal), bupropion and placebo (Bup+P), bupropion and naltrexone 48 mg (Bup+Nal 48), bupropion and naltrexone 32 mg (Bup+Nal 32), or bupropion and naltrexone 16 mg (Bup+Nal 16).
The mass of selective visceral loss can be calculated based on total fat and the volume of visceral fat.
(§2) The average change in visceral body mass is shown in FIG. 1 for the four treatments. […] Statistically significant improvements were also observed in several important metabolic parameters including: plasma glucose, serum insulin and plasma triglycerides.
The percentage of this decrease was similar in magnitude in both visceral and overall adipose tissue.

[2] = test system: healthy, non-diabetic, obese subjects; experiment: Double-blind, placebo-controlled multi-center trial, 24 weeks of treatment (Example 1); settings: for Fasting Glucose / Insulin (mcU/mL) / Triglyceride / Waist (cm) / Weight (%): obese subjects; for Weight (%): naltrexone 48 mg qd, bupropion 400 mg, or 32/400 mg combination; for Visceral fat (%): subset with DEXA and multislice CT scans
Experimental: A double-blind, placebo-controlled multi-center trial was conducted with 285 healthy, non-diabetic, obese subjects. The subjects were administered either bupropion 200 mg bid, placebo (P), naltrexone 48 mg qd (N1), or bupropion 400 mg with naltrexone 32 mg qd (BN2). 182 subjects completed 24 weeks of treatment. A subset of 60 subjects had dual energy X-ray absorptometry (DEXA) and multislice CT scans to measure body fat, lean tissue and visceral fat (American Diabetes Association Annual Meeting 2007).
The groups were matched at baseline.

Subjects [3] = experiment: Metabolic parameters (Example 2, Table 5); settings: Table 5, Metabolic Parameters
Experimental: as §1, §2

| Compound | Change from Baseline Mean (SD), Total Body Adipose Mass (Subjects [1]) | Change in Waist Circumference (cm) (Subjects [1]) | Change in Waist Circumference (%) vs. placebo (Subjects [1]) [%] | LS Mean (SE)^, Total Body Adipose Mass (Subjects [1]) | LS Mean (SE)^, Visceral Adipose Mass (Subjects [1]) | Change from Baseline Mean (SD), Visceral Adipose Mass (Subjects [1]) | Fasting Glucose [2] [mg/dL] | Insulin (mcU/mL) [2] [mcU/mL] | Triglyceride [2] [mg/dL] | Waist (cm) [2] [cm] | Weight (%) [2] [%] | Visceral fat (%) [2] [%] | Plasma Glucose (Subjects [3]) [mg/dL] | Serum Insulin (uU/mL) (Subjects [3]) | Triglycerides (Subjects [3]) [mg/dL] |
| --- | --- | --- | --- | --- | --- | --- | --- | --- | --- | --- | --- | --- | --- | --- | --- |
| CC(NC(C)(C)C)C(=O)c1cccc(Cl)c1 (stereo not drawn) [Bupropion, bupropion] | −4.1 | 1.9 | 1.8 | −2.6 | 0.2 | −2.3 | 3.5 ± 1.5 | −0.5 ± 1.1 | -18.4 ± 9.0 | −2.9 ± 6.0 | −3.14 ± 0.7 | −2.3 ± 5.1 | 3.5 ± 1.5 | −0.5 ± 1.1 | -18.4 ± 9.0 |
| O=C1CC[C@@]2(O)[C@H]3Cc4ccc(O)c5c4[C@@]2(CCN3CC2CC2)[C@H]1O5 [Naltrexone, naltrexone] | −3.2 | −1.5 | −1.4 | −1.5 | 3.5 | −0.1 | 3.4 ± 1.7 | 1.7 ± 1.3 | -17.6 ± 10.4 | −3.8 ± 12.7 | −1.74 ± 0.9 | −0.1 ± 8.7 | 3.4 ± 1.7 | 1.7 ± 1.3 | -17.6 ± 10.4 |
